Assay results from patent US9585386B2, “Microbicidal composition” (Dow Global Technologies LLC, priority 2013, dated 2017).
Values joined by “and” are separate entries in the source; they are usually repeats but may differ in a detail not shown here. Identical values can stand only once. Like-named read-outs stand apart in the source and are kept apart here.

How the values were obtained:
Type in all cases: cell-based
any organism tested = test: Synergy of other biocides paired with surfactants; details: for ratio of surfactant to biocide where synergy was observed: not commercially relevant (less biocide relative to surfactant)
Method: (§1) Surfactants and biocides were evaluated for synergy by determining the synergy index (S.I.) of the combination. Synergy index was calculated based on minimum inhibitory concentrations (MIC) of two antimicrobial compounds (A and B) alone and in combinations. The tests organisms were Gram negative bacteria (Pseudomonas aeruginosa ATCC #15442), Gram positive bacteria (Staphylococcus aureus ATCC #6538), yeast (Candida albicans ATCC #10203) and mold (Aspergillus niger ATCC#16404). Contact time for the bacteria was 24 and 48 hours, yeast was 48 and 72 hrs, and 3 and 7 days for mold. The test was carried out in 96 well microtiter plates. • Surf. A R^1O(CH2CH(CH3)O)5(CH2CH2O)9H, where R^1 is 2-ethylhexyl • Surf. D R^2O(CH2CH(CH3)O)3(CH2CH2O)5H • Surf. E R^2O(CH2CH(CH3)O)3(CH2CH2O)7H In Surf. D and Surf. E, R^2 is a mixture of C8-C14 linear alkyl groups (70% C8-C10 linear alkyl and 30% C12-C14 linear alkyl) Inoculums Used
(§2) SI is calculated as follows: Ca/CA+Cb/CB=Synergy Index (“SI”)
(§3) Wherein: • CA=concentration of compound A in ppm, acting alone, which produced an end point (MIC of Compound A). • Ca=concentration of compound A in ppm, in the mixture, which produced an end point. • CB=concentration of compound B in ppm, acting alone, which produced an end point (MIC of Compound B). • Cb=concentration of compound B in ppm, in the mixture, which produced an end point. When the sum of Ca/CA and Cb/CB is greater than one, antagonism is indicated.
A • Sodium Benzoate, TRIS NITRO Surf. E • DMDMH Surf. […] At these ratios, the biocide levels in a formulated product would be too low to be practical: Surf. A • DIDAC, IPBC Surf. E • CMIT/MIT, IPBC, OIT, TTPC, WSCP Surf.

[1] = system: Candida albicans ATCC #10203; test: MIC / synergy index test in 96 well microtiter plates, yeast; details: for CB (MIC of compound B alone): MIT alone; for CB (MIC of compound B alone) / Cb (concentration of compound B in the mixture which produced an end point): PDB, 48 hrs
Method: as §1
(§4) The pH of the Triptic soy broth was 7.3 and the Potato dextrose broth was 5.1.
as §2, §3

[2] = system: Pseudomonas aeruginosa ATCC #15442; test: MIC / synergy index test in 96 well microtiter plates, Gram negative bacteria; details: for Cb (concentration of compound B in the mixture which produced an end point): 1/10 TSB, 24 hrs; for MIC: Pseudomonas aeruginosa, ATCC15442, 24 h
Method: as §1, §4, §2, §3

[3] = system: Staphylococcus aureus ATCC #6538; test: MIC / synergy index test in 96 well microtiter plates, Gram positive bacteria
Method: as §1, §4, §2, §3

[4] = system: Aspergillus niger ATCC#16404; test: MIC / synergy index test in 96 well microtiter plates, mold; details: PDB, 3rd day; for MIC: Aspergillus niger, ATCC16404, read-out: CB (MIC of compound B alone), MIT alone, inoculum 1.156E+06 CFU/ml; for Cb (concentration of compound B in the mixture which produced an end point): 1.156E+06 CFU/ml
Method: as §1, §4, §2, §3

`O=C([O-])c1ccccc1.[Na+]` [Sodium Benzoate] was tested. Which “Synergy against any organism tested” value (any organism tested; biocide paired with Surf. A) did it give?
Its value is “no synergy”.

For `CCC12COCN1COC2` [CS-1246], which “Synergy against any organism tested” value (any organism tested; biocide paired with Surf. D) is on record?
The value was “no synergy”.

For `Cn1sc2ccccc2c1=O` [MBIT], which “ratio of surfactant to biocide where synergy was observed” value (“ratio of surfactant” for short) (any organism tested; biocide paired with Surf. D) is on record?
The value was “synergistic only at 1:0.05 or worse”.

With `CCCCCCCCCC[N+](C)(C)CCCCCCCCCC.[Cl-]` [DIDAC] as the molecule, how does the “ratio of surfactant” value (any organism tested; biocide paired with Surf. A) read?
The value was 1:0.2 or greater.

What about the “ratio of surfactant” value (any organism tested; biocide paired with Surf. D) of the same molecule?
Its value is 1:0.2 or greater.

What does the source list for `CC1(C)C(=O)N(CO)C(=O)N1CO` [DMDMH]?
Synergy against any organism tested (any organism tested; biocide paired with Surf. D): no synergy; Synergy against any organism tested (any organism tested; biocide paired with Surf. E): no synergy

How did the “Synergy against any organism tested” value (any organism tested; biocide paired with Surf. A) turn out when `O=[N+]([O-])C(CO)(CO)CO` [TRIS NITRO] was run?
The value was “no synergy”.

With `Oc1ccccc1-c1ccccc1` [OPP] as the molecule, how does the “Synergy against any organism tested” value (any organism tested; biocide paired with Surf. D) read?
The value was “no synergy”.

How did the “ratio of surfactant” value (any organism tested; biocide paired with Surf. E) turn out when `CCCCCCCCCCCCCC[P+](CCCC)(CCCC)CCCC.[Cl-]` [TTPC] was run?
The value was 1:0.2 or greater.

What does the source list for `CCCCCCCCn1sccc1=O` [OIT]?
ratio of surfactant to biocide where synergy was observed (any organism tested; biocide paired with Surf. D): 1:0.2 or greater; ratio of surfactant to biocide where synergy was observed (any organism tested; biocide paired with Surf. E): 1:0.2 or greater

With `CCCCNC(=O)OCC#CI` [IPBC] as the molecule, how does the “ratio of surfactant” value (any organism tested; biocide paired with Surf. A) read?
The value was 1:0.2 or greater.

And the “ratio of surfactant” value (any organism tested; biocide paired with Surf. D)?
Its value is “synergistic only at 1:0.05 or worse”.

What about the “ratio of surfactant” value (any organism tested; biocide paired with Surf. E) of the same molecule?
Its value is 1:0.2 or greater.

With `Cn1sccc1=O` [MIT, 2-methyl-4-isothiazolin-3-one] as the molecule, how does the MIC ([1]; Candida albicans, ATCC10203, 48 h, read-out: CB (MIC of compound B alone)) read?
Its MIC is 200 µg/mL.

What about the “CB (MIC of compound B alone)” value ([1]; Surf. D series, inoculum 5.726E+05 CFU/ml) of the same molecule?
Its value is 200 ppm.

And the “CB (MIC of compound B alone)” value ([1]; Surf. E series, inoculum 1.808E+06)?
The value was 200 ppm.

What about the “Cb (concentration of compound B in the mixture which produced an end point)” value ([1]; MIT in mixture with Surf. A, 1.156E+06 CFU/ml) of the same molecule?
The value was 100 ppm.

What about the “Cb (concentration of compound B in the mixture which produced an end point)” value ([1]; MIT in mixture with Surf. D, 5.726E+05 CFU/ml) of the same molecule?
Its value is 50 ppm and 60 ppm and 80 ppm and 100 ppm.

And the “Cb (concentration of compound B in the mixture which produced an end point)” value ([2]; MIT in mixture with Surf. A, 8.134E+07 CFU/ml)?
Its value is 30 ppm.

And the “Cb (concentration of compound B in the mixture which produced an end point)” value ([2]; MIT in mixture with Surf. D, 1.16E+08)?
Its value is 20 ppm.

And the MIC ([2]; read-out: CB (MIC of compound B alone), MIT alone, Surf. A series, 1/10 TSB, inoculum 8.134E+07 CFU/ml)?
The MIC was 40 µg/mL.

And the MIC ([2]; read-out: CB (MIC of compound B alone), MIT alone, Surf. D series, 1/10 TSB, inoculum 1.16E+08)?
Its MIC is 30 µg/mL.

What about the “CB (MIC of compound B alone)” value ([3]; MIT alone, Surf. E series, 1/10 TSB, inoculum 1.808E+06 CFU/ml, 24 hrs) of the same molecule?
Its value is 60 ppm.

What about the “Cb (concentration of compound B in the mixture which produced an end point)” value ([3]; MIT in mixture with Surf. E, 1/10 TSB, 1.808E+06 CFU/ml, 24 hrs) of the same molecule?
Its value is 50 ppm and 40 ppm and 30 ppm.

What about the MIC ([3]; Staphylococcus aureus, ATCC6538, 24 h, read-out: CB (MIC of compound B alone)) of the same molecule?
The MIC was 60 µg/mL.

What about the MIC ([4]; Surf. A series) of the same molecule?
Its MIC is 400 µg/mL.

What about the MIC ([4]; Surf. E series) of the same molecule?
The MIC was 300 µg/mL.

What about the “Cb (concentration of compound B in the mixture which produced an end point)” value ([4]; MIT in mixture with Surf. A) of the same molecule?
The value was 300 ppm.

What about the “Cb (concentration of compound B in the mixture which produced an end point)” value ([4]; MIT in mixture with Surf. E) of the same molecule?
Its value is 200 ppm.
